Reference: ChEMBL document CHEMBL5500375, “Design, synthesis, and evaluation of N1,N3-dialkyldioxonaphthoimidazoliums as antibacterial agents against methicillin-resistant Staphylococcus aureus” (Eur J Med Chem, 2024)
Calls of active or inactive are those of the source. No cut-off for these calls is given here.

Tests used:
Staphylococcus aureus [1] = assay: Antibacterial agents against methicillin-resistant Staphylococcus aureus SA3 assessed as absence of growth measured after 18 hrs by micro-dilution method; assay type: functional
Staphylococcus aureus [2] = assay: Antibacterial agents against methicillin-resistant Staphylococcus aureus USA300 assessed as absence of growth measured after 18 hrs by micro-dilution method; assay type: functional
Staphylococcus aureus [3] = assay: Antibacterial agents against methicillin-sensitive Staphylococcus aureus SA1 assessed as absence of growth measured after 18 hrs by micro-dilution method; assay type: functional
Staphylococcus aureus [4] = assay: Antibacterial agents against methicillin-sensitive Staphylococcus aureus Newman assessed as absence of growth measured after 18 hrs by micro-dilution method; assay type: functional
Staphylococcus aureus [5] = assay: Antibacterial agents against c5-resistant mutant of methicillin-resistant Staphylococcus aureus SA3 m2 assessed as absence of growth measured after 18 hrs by micro-dilution method; assay type: functional
Staphylococcus aureus [6] = assay: Antibacterial agents against c5-resistant mutant of methicillin-resistant Staphylococcus aureus SA3 m3 assessed as absence of growth measured after 18 hrs by micro-dilution method; assay type: functional
Staphylococcus aureus [7] = assay: Antibacterial agents against c5-resistant mutant of methicillin-resistant Staphylococcus aureus SA3 m4 assessed as absence of growth measured after 18 hrs by micro-dilution method; assay type: functional
[8] = Cytotoxicity against human HEK293 cells assessed as cell survival measured after 72 hrs incubation by Cell Titer-Glo luminescent assay; assay type: toxicity, cell-based
[9] = Therapeutic index, ratio of IC50 for HEK293 cells to MIC for […] activity against methicillin-resistant Staphylococcus aureus SA3; assay type: toxicity; conditions: human, read-out: TI
[10] = Metabolic stability in human liver microsomes assessed as half life at 2 uM preincubated for 5 mins followed by NADPH addition and measured for 35 mins by LC/MS analysis; assay type: ADME, Microsome; conditions: preincubation 5 min
[11] = Metabolic stability in human liver microsomes assessed as intrinsic clearance at 2 uM preincubated for 5 mins followed by NADPH addition and measured for 35 mins by LC/MS analysis; assay type: ADME, Microsome; conditions: read-out: CLH
Staphylococcus aureus [12] = assay: Antibacterial agents against methicillin-sensitive Staphylococcus aureus SA1 assessed as absence of growth at 0.19 ug/ml measured after overnight incubation under anaerobic condition in presence of N-acetylcysteine by micro-dilution method; assay type: functional, organism-based; conditions: dose 0.19 µg/ml
Staphylococcus aureus [13] = assay: Antibacterial agents against methicillin-sensitive Staphylococcus aureus Newman assessed as absence of growth at 0.19 ug/ml measured after overnight incubation under anaerobic condition in presence of N-acetylcysteine by micro-dilution method; assay type: functional, organism-based; conditions: dose 0.19 µg/ml
Staphylococcus aureus [14] = assay: Antibacterial agents against methicillin-resistant Staphylococcus aureus SA3 assessed as absence of growth at 0.19 ug/ml measured after overnight incubation under anaerobic condition in presence of N-acetylcysteine by micro-dilution method; assay type: functional, organism-based; conditions: dose 0.19 µg/ml
Staphylococcus aureus [15] = assay: Antibacterial agents against c5-resistant mutant of methicillin-resistant Staphylococcus aureus SA3 m2 assessed as absence of growth at 0.19 ug/ml measured after overnight incubation under anaerobic condition in presence of N-acetylcysteine by micro-dilution method; assay type: functional, organism-based; conditions: dose 0.19 µg/ml
Staphylococcus aureus [16] = assay: Antibacterial agents against c5-resistant mutant of methicillin-resistant Staphylococcus aureus SA3 m3 assessed as absence of growth at 0.19 ug/ml measured after overnight incubation under anaerobic condition in presence of N-acetylcysteine by micro-dilution method; assay type: functional, organism-based; conditions: dose 0.19 µg/ml
Staphylococcus aureus [17] = assay: Antibacterial agents against c5-resistant mutant of methicillin-resistant Staphylococcus aureus SA3 m5 assessed as absence of growth at 0.19 ug/ml measured after overnight incubation under anaerobic condition in presence of N-acetylcysteine by micro-dilution method; assay type: functional, organism-based; conditions: dose 0.19 µg/ml
Bacillus subtilis = assay: Antibacterial agents against Bacillus subtilis PS380 assessed as absence of growth at 0.19 ug/ml measured after overnight incubation under anaerobic condition in presence of N-acetylcysteine by micro-dilution method; assay type: functional, organism-based; conditions: dose 0.19 µg/ml
Staphylococcus aureus [18] = assay: Induction of ROS generation in methicillin-resistant Staphylococcus aureus USA300 using hydroxyphenyl fluorescein at 0.09 ug/ml under anaerobic condition; assay type: functional, organism-based; conditions: dose 0.09 µg/ml, TDE = time-dependent effect
Staphylococcus aureus [19] = assay: Induction of ROS generation in methicillin-resistant Staphylococcus aureus SA3 using hydroxyphenyl fluorescein at 0.19 ug/ml under anaerobic condition; assay type: functional, organism-based; conditions: dose 0.19 µg/ml
Staphylococcus aureus [20] = assay: Anti-biofilim activity against methicillin-resistant Staphylococcus aureus SA3 assessed decrease in biofilm growth at 1 to 10 times of MIC concentration measured after 12 to 24 hrs incubation; assay type: functional, organism-based; conditions: time 12-24 hrs
Pseudomonas aeruginosa [21] = assay: Antibacterial agents against gram negative Pseudomonas aeruginosa PA14 assessed as reduction in colony forming unit at 0.78 ug/ml measured upto 10 hrs by LB agar medium method; assay type: functional, organism-based; conditions: dose 0.78 µg/ml
Escherichia coli [22] = assay: Antibacterial agents against gram negative Escherichia coli MG1655 assessed as reduction in colony forming unit at 0.78 ug/ml measured upto 10 hrs by LB agar medium method; assay type: functional, organism-based; conditions: dose 0.78 µg/ml
Pseudomonas aeruginosa [23] = assay: Antibacterial agents against gram negative Pseudomonas aeruginosa PA14 assessed as reduction in colony forming unit at 0.78 ug/ml measured upto 10 hrs in presence of 0.05 ug/ml Polymyxin B by LB agar medium method; assay type: functional, organism-based; conditions: dose 0.78 µg/ml
Escherichia coli [24] = assay: Antibacterial agents against gram negative Escherichia coli MG1655 assessed as reduction in colony forming unit at 0.78 ug/ml measured upto 10 hrs in presence of 0.05 to 0.2 ug/ml Polymyxin B by LB agar medium method; assay type: functional, organism-based; conditions: dose 0.78 µg/ml
Pseudomonas aeruginosa [25] = assay: Antibacterial agents against gram negative Pseudomonas aeruginosa PA14 assessed as reduction in colony forming unit at 0.78 ug/ml measured upto 10 hrs in presence of 0.1 ug/ml Polymyxin B by LB agar medium method; assay type: functional, organism-based; conditions: dose 0.78 µg/ml
Pseudomonas aeruginosa [26] = assay: Antibacterial agents against gram negative Pseudomonas aeruginosa PA14 assessed as reduction in colony forming unit at 0.78 ug/ml in presence of 0.1 to 0.2 ug/ml Polymyxin B by LB agar medium method; assay type: functional, organism-based; conditions: dose 0.78 µg/ml, time 0-10 hrs, TDE = time-dependent effect
Staphylococcus aureus [27] = assay: Bactericidal activity against methicillin-resistant Staphylococcus aureus SA3 assessed as as reduction in colony forming unit at 0.78 ug/ml measured upto 10 hrs by time-kill assay; assay type: functional, organism-based; conditions: dose 0.78 µg/ml
Staphylococcus aureus [28] = assay: In vivo antibacterial activity against methicillin-resistant Staphylococcus aureus SA3 infected in dorsal thorax of Drosophila melanogaster strain Oregon R assessed as survival time of Drosophila at 0.2 mg/ml measured upto 72 hrs; assay type: functional
Staphylococcus aureus [29] = assay: In vivo antibacterial activity against methicillin-resistant Staphylococcus aureus SA3 infected in dorsal thorax of Drosophila melanogaster strain Oregon R assessed as survival time of Drosophila at 0.04 mg/ml measured upto 72 hrs relative to control; assay type: functional, organism-based
Staphylococcus aureus [30] = assay: In vivo antibacterial activity against methicillin-resistant Staphylococcus aureus SA3 infected in dorsal thorax of Drosophila melanogaster strain Oregon R assessed as median survival time of Drosophila at 0.04 to 0.2 mg/ml measured upto 72 hrs; assay type: functional; conditions: dose 0.04-0.2 mg/ml
Staphylococcus aureus [31] = assay: Antibacterial activity against methicillin-resistant Staphylococcus aureus SA3 assessed as resistance by measuring antibacterial activity after 10 passages at 0.39 ug/ml by emergence of bacterial resistance assay; assay type: functional, organism-based; conditions: dose 0.39 µg/ml
Staphylococcus aureus [32] = assay: Antibacterial activity against c5-resistant mutant of methicillin-resistant Staphylococcus aureus SA3 m6 assessed as resistance by measuring antibacterial activity after 20 passages at 200 ug/ml by emergence of bacterial resistance assay; assay type: functional, organism-based; conditions: dose 200.0 µg/ml
Staphylococcus aureus [33] = assay: Antibacterial activity against methicillin-resistant Staphylococcus aureus SA3 assessed as absence of growth measured after 16 passages by emergence of bacterial resistance assay; assay type: functional

## CCCCCCCCn1c2c([n+](Cc3ccccc3)c1C)C(=O)c1ccccc1C2=O.[Br-]
Staphylococcus aureus [1]
  MIC: 0.39 µg/mL
Staphylococcus aureus [2]
  MIC: 0.39 µg/mL
Staphylococcus aureus [3]
  MIC: 0.19 µg/mL
Staphylococcus aureus [4]
  MIC: 0.19 µg/mL
Staphylococcus aureus [5]
  MIC: 6.25 µg/mL
Staphylococcus aureus [6]
  MIC: 6.25 µg/mL
Staphylococcus aureus [7]
  MIC: 6.25 µg/mL
[8]
  IC50 at 72 h: 293 nM
[9]
  selectivity ratio: 0.8
[10]
  half-life at 2 µM: 32 min
[11]
  CLint scaled at 2 µM: 39 mL/min/kg
Staphylococcus aureus [12]
  Activity: inactive
Staphylococcus aureus [13]
  Activity: inactive
Staphylococcus aureus [14]
  Activity: inactive
Staphylococcus aureus [15]
  Activity: inactive
Staphylococcus aureus [16]
  Activity: inactive
Staphylococcus aureus [17]
  Activity: inactive
Bacillus subtilis
  Activity: Active
Staphylococcus aureus [18]
  Activity: Tde
Staphylococcus aureus [19]
  Activity: Active
Staphylococcus aureus [20]
  Activity: Active
Pseudomonas aeruginosa [21]
  Activity: inactive
Escherichia coli [22]
  Activity: inactive
Pseudomonas aeruginosa [23]
  Activity: inactive
Escherichia coli [24]
  Activity: inactive
Pseudomonas aeruginosa [25]
  Activity: Active
Pseudomonas aeruginosa [26]
  Activity: Tde
Staphylococcus aureus [27]
  Activity: Active
Staphylococcus aureus [28]
  Time: 62 h
Staphylococcus aureus [29]
  Activity: Active
Staphylococcus aureus [30]
  Time: 56 h
Staphylococcus aureus [31]
  Activity: Active
Staphylococcus aureus [32]
  Activity: inactive
Staphylococcus aureus [33]
  MIC: 1.56 µg/mL
